Assay results: US9937183B2, “Antimicrobial compounds and methods of making and using the same” (priority 2013, dated 2018)
Values after ≈ are worked out from the molar mass of the structure shown. Where two headings read alike, the source gives them in different places.

Experiments:
Type in all cases: cell-based
E. coli ATCC25922 = experiment: MIC, microtiter-based liquid assay (CLSI); settings: Escherichia coli
E. coli 1705878 = experiment: MIC, microtiter-based liquid assay (CLSI); settings: Escherichia coli, MDR strain
E. coli MG1655 parent = experiment: MIC, microtiter-based liquid assay (CLSI); settings: Escherichia coli
E. coli CAG12184 TolC = experiment: MIC, microtiter-based liquid assay (CLSI); settings: Escherichia coli, CAG12184TOLC
[1] = system: S. pneumoniae 02J1175 Mef(A); experiment: MIC, microtiter-based liquid assay (CLSI); settings: Streptococcus pneumoniae
S. aureus 11540 MRSA = experiment: MIC, microtiter-based liquid assay (CLSI); settings: Staphylococcus aureus
K. pneumoniae 1705949 = experiment: MIC, microtiter-based liquid assay (CLSI); settings: Klebsiella pneumoniae, MDR strain
K. pneumoniae 1705966 = experiment: MIC, microtiter-based liquid assay (CLSI); settings: Klebsiella pneumoniae
A. baumannii 1705936 = experiment: MIC, microtiter-based liquid assay (CLSI); settings: Acinetobacter baumannii, MDR strain
A. baumannii 1705943 = experiment: MIC, microtiter-based liquid assay (CLSI); settings: Acinetobacter baumannii
P. aeruginosa ATCC27853 = experiment: MIC, microtiter-based liquid assay (CLSI); settings: Pseudomonas aeruginosa
P. aeruginosa 1705886 = experiment: MIC, microtiter-based liquid assay (CLSI); settings: Pseudomonas aeruginosa
P. aeruginosa 1705904 = experiment: MIC, microtiter-based liquid assay (CLSI); settings: Pseudomonas aeruginosa, MDR strain
[2] = system: E. faecium A6349 VanA + LNZ-R; experiment: MIC, microtiter-based liquid assay (CLSI); settings: Enterococcus faecium
B. anthracis = experiment: microbe, parasite or virus in culture; settings: Bacillus anthracis; for MIC50: read-out: B. anthracis MIC50; for MIC90: read-out: B. anthracis MIC90; for MIC: read-out: B. anthracis MIC Range
Y. pestis = experiment: microbe, parasite or virus in culture; settings: Yersinia pestis; for MIC50: read-out: Y. pestis MIC50; for MIC90: read-out: Y. pestis MIC90; for MIC: read-out: Y. pestis MIC Range
B. mallei = experiment: microbe, parasite or virus in culture; settings: Burkholderia mallei; for MIC50: read-out: B. mallei MIC50; for MIC90: read-out: B. mallei MIC90; for MIC: read-out: B. mallei MIC Range
F. tularensis = experiment: microbe, parasite or virus in culture; settings: Francisella tularensis; for MIC50: read-out: F. tularensis MIC50; for MIC90: read-out: F. tularensis MIC90; for MIC: read-out: F. tularensis MIC Range
B. pseudomallei = experiment: microbe, parasite or virus in culture; settings: Burkholderia pseudomallei; for MIC50: read-out: B. pseudomallei MIC50; for MIC90: read-out: B. pseudomallei MIC90; for MIC: read-out: B. pseudomallei MIC Range
[3] = ATCC25922, read-out: MIC E. coli ATCC25922 + 50% HS
[4] = ATCC25922, read-out: MIC E. coli ATCC25922

C[C@H](N)CCCc1cc(Cl)c(F)c(-c2cc3cn(-c4ccc([C@H](N)CCCCNC(=N)N)cc4)c(=O)nc3[nH]2)c1 [Compound 16]
MIC (E. coli ATCC25922; [3]): 0.125 µg/mL
MIC (E. coli ATCC25922; [4]): 0.125 µg/mL (≈ 0.22 µM)
MIC (E. coli 1705878): 0.5 µg/mL (≈ 0.882 µM)
MIC (E. coli MG1655 parent): 0.25 µg/mL (≈ 0.441 µM)
MIC (E. coli CAG12184 TolC): 0.06 µg/mL (≈ 0.106 µM)
MIC [1]: 0.25 µg/mL (≈ 0.441 µM)
MIC (S. aureus 11540 MRSA): 0.25 µg/mL (≈ 0.441 µM)
MIC (K. pneumoniae 1705949): 2 µg/mL (≈ 3.53 µM)
MIC (K. pneumoniae 1705966): 0.25 µg/mL (≈ 0.441 µM)
MIC (A. baumannii 1705936): 2 µg/mL (≈ 3.53 µM)
MIC (A. baumannii 1705943): 0.125 µg/mL (≈ 0.22 µM)
MIC (P. aeruginosa ATCC27853): 4 µg/mL (≈ 7.05 µM)
MIC (P. aeruginosa 1705886): 4 µg/mL (≈ 7.05 µM)
MIC (P. aeruginosa 1705904): 8 µg/mL (≈ 14.1 µM)
MIC [2]: 2 µg/mL
MIC50 (B. anthracis): ≤ 0.03 µg/mL
MIC90 (B. anthracis): 0.06 µg/mL (≈ 0.106 µM)
MIC (B. anthracis): 0.03 to 0.12 µg/mL (≈ 0.0529 to 0.212 µM)
MIC50 (Y. pestis): 0.12 µg/mL (≈ 0.212 µM)
MIC90 (Y. pestis): 0.25 µg/mL (≈ 0.441 µM)
MIC (Y. pestis): 0.03 to 0.5 µg/mL (≈ 0.0529 to 0.882 µM)
MIC50 (B. mallei): ≤ 0.03 µg/mL
MIC90 (B. mallei): 0.06 µg/mL (≈ 0.106 µM)
MIC (B. mallei): 0.03 to 0.06 µg/mL (≈ 0.0529 to 0.106 µM)
MIC50 (F. tularensis): ≤ 0.03 µg/mL
MIC90 (F. tularensis): 0.12 µg/mL (≈ 0.212 µM)
MIC (F. tularensis): 0.03 to 1 µg/mL (≈ 0.0529 to 1.76 µM)
MIC50 (B. pseudomallei): 4 µg/mL (≈ 7.05 µM)
MIC90 (B. pseudomallei): 8 µg/mL (≈ 14.1 µM)
MIC (B. pseudomallei): 2 to 16 µg/mL (≈ 3.53 to 28.2 µM)

C[C@H](NCCCNC(=N)N)c1ccc(-n2cc3cc(-c4cc(CCC[C@@H](N)CF)cc(Cl)c4F)[nH]c3nc2=O)cc1 [Compound 17]
MIC (E. coli ATCC25922; [3]): 0.5 µg/mL
MIC (E. coli ATCC25922; [4]): 0.25 µg/mL (≈ 0.427 µM)
MIC (E. coli 1705878): 2 µg/mL (≈ 3.42 µM)
MIC (E. coli MG1655 parent): 1 µg/mL (≈ 1.71 µM)
MIC (E. coli CAG12184 TolC): 0.125 µg/mL (≈ 0.214 µM)
MIC [1]: 0.125 µg/mL (≈ 0.214 µM)
MIC (S. aureus 11540 MRSA): 0.25 µg/mL (≈ 0.427 µM)
MIC (K. pneumoniae 1705949): 1 µg/mL (≈ 1.71 µM)
MIC (K. pneumoniae 1705966): 0.125 µg/mL (≈ 0.214 µM)
MIC (A. baumannii 1705936): 1 µg/mL (≈ 1.71 µM)
MIC (A. baumannii 1705943): 0.25 µg/mL (≈ 0.427 µM)
MIC (P. aeruginosa ATCC27853): 8 µg/mL (≈ 13.7 µM)
MIC (P. aeruginosa 1705886): 4 µg/mL (≈ 6.84 µM)
MIC (P. aeruginosa 1705904): 8 µg/mL (≈ 13.7 µM)
MIC [2]: 0.5 µg/mL
MIC50 (B. anthracis): 0.25 µg/mL (≈ 0.427 µM)
MIC90 (B. anthracis): 0.25 µg/mL (≈ 0.427 µM)
MIC (B. anthracis): 0.03 to 0.5 µg/mL (≈ 0.0513 to 0.855 µM)
MIC50 (Y. pestis): 0.25 µg/mL (≈ 0.427 µM)
MIC90 (Y. pestis): 0.5 µg/mL (≈ 0.855 µM)
MIC (Y. pestis): 0.03 to 0.5 µg/mL (≈ 0.0513 to 0.855 µM)
MIC50 (B. mallei): 0.06 µg/mL (≈ 0.103 µM)
MIC90 (B. mallei): 0.25 µg/mL (≈ 0.427 µM)
MIC (B. mallei): 0.03 to 0.25 µg/mL (≈ 0.0513 to 0.427 µM)
MIC50 (F. tularensis): ≤ 0.03 µg/mL
MIC90 (F. tularensis): 0.12 µg/mL (≈ 0.205 µM)
MIC (F. tularensis): 0.03 to 1 µg/mL (≈ 0.0513 to 1.71 µM)
MIC50 (B. pseudomallei): 8 µg/mL (≈ 13.7 µM)
MIC90 (B. pseudomallei): 16 µg/mL (≈ 27.3 µM)
MIC (B. pseudomallei): 1 to 16 µg/mL (≈ 1.71 to 27.3 µM)
